# Laboratory results as given in ChEMBL document CHEMBL5107949, “Design, synthesis, and antibacterial activity of N-(trifluoromethyl)phenyl substituted pyrazole derivatives” (RSC Med Chem, 2021).
# Calls of active or inactive are those of the source. The rule behind the calls is not given here.
# Columns and labels:
# [1] = tested on: Staphylococcus aureus; test: Antibacterial activity against antibiotic susceptible Staphylococcus aureus ATCC 25923 assessed as inhibition of bacterial growth by CLSI protocol based broth microdilution method; assay type: functional
# [2] = tested on: Enterococcus faecalis; test: Inhibition of biofilm formation in Enterococcus faecalis ATCC 29212 at 12.5 ug/ml incubated for 24 hrs by Calgary biofilm device assay; assay type: functional; conditions: dose 12.5 µg/ml
# [3] = tested on: Enterococcus faecalis; test: Anti-biofilm activity against Enterococcus faecalis ATCC 29212 assessed as biofilm eradication at 3.125 to 12.5 ug/ml incubated for 24 hrs by Calgary biofilm device assay; assay type: functional, organism-based; conditions: dose 3.125-12.5 µg/ml
# [4] = tested on: Enterococcus faecalis; test: Inhibition of biofilm formation in Enterococcus faecalis ATCC 29212 at 6.25 ug/ml incubated for 24 hrs by Calgary biofilm device assay; assay type: functional; conditions: dose 6.25 µg/ml
# [5] = tested on: Staphylococcus aureus; test: Anti-biofilm activity against Staphylococcus aureus ATCC 25923 assessed as eradication of biofilm formation incubated for 24 hrs by Calgary biofilm device assay; assay type: functional; conditions: Staphylococcus aureus, ATCC 25923
# [6] = tested on: Staphylococcus aureus; test: Bactericidal activity against Staphylococcus aureus ATCC 700699 assessed as bacteria elimination at 4 times MIC and measured after 6 hrs by time-kill assay; assay type: functional
# [7] = tested on: Enterococcus faecalis; test: Antibacterial activity against Enterococcus faecalis clinical isolate 1091563 assessed as inhibition of bacterial growth by CLSI protocol based broth microdilution method; assay type: functional
# [8] = tested on: Enterococcus faecium; test: Antibacterial activity against Enterococcus faecium clinical isolate 1088168 assessed as inhibition of bacterial growth by CLSI protocol based broth microdilution method; assay type: functional
# [9] = tested on: Enterococcus faecium; test: Antibacterial activity against Enterococcus faecium clinical isolate 1089544 assessed as inhibition of bacterial growth by CLSI protocol based broth microdilution method; assay type: functional
# [10] = tested on: Staphylococcus aureus; test: Antibacterial activity against Staphylococcus aureus clinical isolate 1088060 assessed as inhibition of bacterial growth by CLSI protocol based broth microdilution method; assay type: functional
# [11] = tested on: Staphylococcus aureus; test: Antibacterial activity against Staphylococcus aureus clinical isolate 1088064 assessed as inhibition of bacterial growth by CLSI protocol based broth microdilution method; assay type: functional
# [12] = tested on: Staphylococcus aureus; test: Inhibition of DNA synthesis in Staphylococcus aureus ATCC 29213 at 1 times MIC preincubated for 30 mins followed by [3H]-thymidine and measured after 30 mins by [3H]-thymidine incorporation based beta scintillation counter analysis; assay type: functional; conditions: time 60 min; 1 h
# [13] = tested on: Staphylococcus aureus; test: Inhibition of RNA synthesis in Staphylococcus aureus ATCC 29213 at 0.25 times MIC preincubated for 30 mins followed by [3H]-uridine and measured after 30 mins by [3H]-uridine incorporation based beta scintillation counter analysis; assay type: functional; conditions: time 60 min; 1 h
# [14] = tested on: Staphylococcus aureus; test: Inhibition of protein synthesis in Staphylococcus aureus ATCC 29213 at 0.5 times MIC preincubated for 30 mins followed by [3H]-leucine and measured after 40 mins by [3H]-leucine incorporation based beta scintillation counter analysis; assay type: functional; conditions: time 70.0 min
# [15] = tested on: Enterococcus faecalis; test: Anti-biofilm activity against Enterococcus faecalis ATCC 29212 assessed as minimum bactericidal concentration incubated for 24 hrs by Calgary biofilm device assay; conditions: ATCC 29212, 24 h
smiles,measurement,setting,value
O=C(O)c1ccc(-c2nn(-c3ccc(C(F)(F)F)cc3)cc2CNc2ccc(Br)c(C(F)(F)F)c2)cc1,MIC,[1],0.78 µg/mL
same,inhibition,[2],Active
same,Activity,[3],Active
same,inhibition,[4],Active
same,MBEC,[5],6.25 µg/mL
same,Activity,[6],>99.9%
same,MIC,[7],8 µg/mL
same,MIC,[8],4 µg/mL
same,MIC,[9],8 µg/mL
same,MIC,[10],4 µg/mL
same,MIC,[11],4 µg/mL
same,inhibition (INH),[12],76%
same,inhibition (INH),[13],14.1%
same,inhibition,[14],53.3%
same,MBC,[15],6.25 µg/mL
